# Assays:
# [1] = test system: P. aeruginosa ATCC 27853; experiment: Broth microdilution MIC in CAMHB; format: cell-based; conditions: Pseudomonas aeruginosa, ATCC27853; MHB; read-out: Minimum Inhibitory Concentration, P. aeruginosa ATCC 27853
# Procedure, shortened: (§1)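 Colonies from cation-adjusted Mueller Hinton agar are grown in broth (3-5 h, 37° C), adjusted by OD600, and added at 2-8×10^5 CFU/mL to 2-fold compound dilutions. After 16-20 h at 37° C, the lowest concentration without growth is taken as MIC.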
# [2] = test system: E. coli ATCC 25922; experiment: Broth microdilution MIC in CAMHB; format: cell-based; conditions: Escherichia coli, ATCC25922; E. coli ATCC 25922; MHB; read-out: Minimum Inhibitory Concentration, E. coli 25922
# Procedure, shortened: as §1
# [3] = test system: K. pneumoniae UMM producing SHV-5 and KPC-2; experiment: Broth microdilution MIC in CAMHB; format: cell-based; conditions: Klebsiella pneumoniae, read-out: Minimum Inhibitory Concentration, K. pneumoniae UMM
# Procedure, shortened: as §1
# [4] = test system: E. coli AG100; experiment: Broth microdilution MIC in CAMHB; format: cell-based; conditions: Escherichia coli; E. coli AG100 (wild-type parent); MHB; read-out: Minimum Inhibitory Concentration, E. coli AG100
# Procedure, shortened: as §1
# [5] = test system: K. pneumoniae 848844 producing SHV-11 and KPC-2; experiment: Broth microdilution MIC in CAMHB; format: cell-based; conditions: Klebsiella pneumoniae, read-out: Minimum Inhibitory Concentration, K. pneumoniae 848844
# Procedure, shortened: as §1
# [6] = test system: E. coli D22; experiment: Broth microdilution MIC in CAMHB; format: cell-based; conditions: Escherichia coli; E. coli D22 (hyper-permeable); MHB; read-out: Minimum Inhibitory Concentration, E. coli D22
# Procedure, shortened: as §1
# [7] = test system: P. aeruginosa (ΔmexAB-oprM); experiment: Broth microdilution MIC in CAMHB; format: cell-based; conditions: Pseudomonas aeruginosa, read-out: Minimum Inhibitory Concentration, P. aeruginosa ΔmexAB-OprM
# Procedure, shortened: as §1
# [8] = test system: E. coli AG100A; experiment: Broth microdilution MIC in CAMHB; format: cell-based; conditions: Escherichia coli, read-out: Minimum Inhibitory Concentration, E. coli AG100A
# Procedure, shortened: as §1
# [9] = biological target: T1, P. aeruginosa PBP3 (Pseudomonas aeruginosa, UniProt G3XD46); experiment: Bocillin-FL fluorescence polarization competition binding assay, P. aeruginosa PBP3; conditions: fluorescence polarization competition binding assay using Bocillin-FL
# T1 construct: made in house
# Procedure, shortened: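 Binding of boronic acid inhibitors to purified Pseudomonas aeruginosa (PA01) PBP3 was measured by fluorescence polarization competition with Bocillin-FL, a fluorescent penicillin V. Reactions of 80 μl contained 0.75 μM PBP3 and 0.1 μM Bocillin-FL in 50 mM Hepes (pH 8.0), 300 mM NaCl and 5% (v/v) glycerol, in black 384-well plates. FP (Excitation 490 nm, Emission 520 nm) was read for up to 60 minutes. EC50 is the concentration that halves PBP-bound Bocillin-FL.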
# T1 sequence (G3XD46 whole entry): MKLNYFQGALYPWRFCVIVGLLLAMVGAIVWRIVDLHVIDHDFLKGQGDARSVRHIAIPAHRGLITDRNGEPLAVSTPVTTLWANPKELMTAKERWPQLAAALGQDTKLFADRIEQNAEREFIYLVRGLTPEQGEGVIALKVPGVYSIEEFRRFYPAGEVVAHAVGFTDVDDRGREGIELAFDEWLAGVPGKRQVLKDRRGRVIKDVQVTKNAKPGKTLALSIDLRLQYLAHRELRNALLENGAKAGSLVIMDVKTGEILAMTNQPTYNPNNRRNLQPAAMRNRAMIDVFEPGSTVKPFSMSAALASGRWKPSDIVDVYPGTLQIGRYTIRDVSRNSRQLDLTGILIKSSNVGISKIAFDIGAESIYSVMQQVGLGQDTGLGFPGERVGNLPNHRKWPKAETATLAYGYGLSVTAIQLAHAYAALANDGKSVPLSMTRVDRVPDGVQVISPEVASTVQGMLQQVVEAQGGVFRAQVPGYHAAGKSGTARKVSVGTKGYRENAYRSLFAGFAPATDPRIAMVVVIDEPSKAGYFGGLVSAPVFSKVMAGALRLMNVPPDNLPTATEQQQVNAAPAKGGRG
SMILES,MIC [1],MIC [2],MIC [3],MIC [4],MIC [5],MIC [6],MIC [7],MIC [8],P. aeruginosa PBP3 Potency [9]
"CCN1CCN(C(=O)NC(C(=O)N[C@H]2Cc3cccc(C(=O)O)c3OB2O)c2cc([N+](=O)[O-])c(O)cc2F)C(=O)C1=O (stereo partly drawn) [Example 184, (3R)-3-(2-(4-ethyl-2,3-dioxopiperazine-1-carboxamido)-2-(2-fluoro-4-hydroxy-5-nitrophenyl)acetamido)-2-hydroxy-3,4-dihydro-2H-benzo[e][1,2]oxaborinine-8-carboxylic acid]",> 128 µg/mL,32 to 64 µg/mL,32 to 64 µg/mL,32 to 64 µg/mL,> 128 µg/mL,2 to 4 µg/mL,8 to 16 µg/mL,2 to 4 µg/mL,D (D represents a potency <10 μM)
"CCN1CCN(C(=O)NC(C(=O)N[C@H]2Cc3cccc(C(=O)O)c3OB2O)c2ccc(O)c(Cl)c2F)C(=O)C1=O (stereo partly drawn) [Example 185, (3R)-3-(2-(3-chloro-2-fluoro-4-hydroxyphenyl)-2-(4-ethyl-2,3-dioxopiperazine-1-carboxamido)acetamido)-2-hydroxy-3,4-dihydro-2H-benzo[e][1,2]oxaborinine-8-carboxylic acid]",> 128 µg/mL,32 to 64 µg/mL,32 to 64 µg/mL,32 to 64 µg/mL,> 128 µg/mL,2 to 4 µg/mL,2 to 4 µg/mL,2 to 4 µg/mL,D (D represents a potency <10 μM)
"CCN1CCN(C(=O)NC(C(=O)N[C@H]2Cc3cccc(C(=O)O)c3OB2O)c2c(F)cc(NC(C)=O)cc2F)C(=O)C1=O (stereo partly drawn) [Example 188, (3R)-3-(2-(4-acetamido-2,6-difluorophenyl)-2-(4-ethyl-2,3-dioxopiperazine-1-carboxamido)acetamido)-2-hydroxy-3,4-dihydro-2H-benzo[e][1,2]oxaborinine-8-carboxylic acid]",> 128 µg/mL,32 to 64 µg/mL,32 to 64 µg/mL,32 to 64 µg/mL,> 128 µg/mL,2 to 4 µg/mL,32 to 64 µg/mL,2 to 4 µg/mL,D (D represents a potency <10 μM)
"CCN1CCN(C(=O)NC(C(=O)N[C@H]2Cc3cccc(C(=O)O)c3OB2O)c2cc(C#N)c(OC)cc2F)C(=O)C1=O (stereo partly drawn) [Example 192, (3R)-3-(2-(5-cyano-2-fluoro-4-methoxyphenyl)-2-(4-ethyl-2,3-dioxopiperazine-1-carboxamido)acetamido)-2-hydroxy-3,4-dihydro-2H-benzo[e][1,2]oxaborinine-8-carboxylic acid]",> 128 µg/mL,> 128 µg/mL,> 128 µg/mL,> 128 µg/mL,> 128 µg/mL,32 to 64 µg/mL,32 to 64 µg/mL,32 to 64 µg/mL,D (D represents a potency <10 μM)
"O=C(O)c1cccc2c1OB(O)[C@@H](NC(=O)C(NC(=O)N1CCN(CC3CNC3)C(=O)C1=O)c1c(F)cc(O)cc1F)C2 (stereo partly drawn) [Example 193, (3R)-3-(2-(4-(azetidin-3-ylmethyl)-2,3-dioxopiperazine-1-carboxamido)-2-(2,6-difluoro-4-hydroxyphenyl)acetamido)-2-hydroxy-3,4-dihydro-2H-benzo[e][1,2]oxaborinine-8-carboxylic acid]",> 128 µg/mL,8 to 16 µg/mL,8 to 16 µg/mL,8 to 16 µg/mL,32 to 64 µg/mL,2 to 4 µg/mL,8 to 16 µg/mL,0.5 to 1 µg/mL,D (D represents a potency <10 μM)
"CCN1CCN(C(=O)NC(C(=O)N[C@H]2Cc3cccc(C(=O)O)c3OB2O)c2ccc(C(=O)O)c(O)c2)C(=O)C1=O (stereo partly drawn) [Example 196, (3R)-3-(2-(4-carboxy-3-hydroxyphenyl)-2-(4-ethyl-2,3-dioxopiperazine-1-carboxamido)acetamido)-2-hydroxy-3,4-dihydro-2H-benzo[e][1,2]oxaborinine-8-carboxylic acid]",32 to 64 µg/mL,32 to 64 µg/mL,8 to 16 µg/mL,32 to 64 µg/mL,32 to 64 µg/mL,0.5 to 1 µg/mL,2 to 4 µg/mL,2 to 4 µg/mL,D (D represents a potency <10 μM)
"CCN1CCN(C(=O)NC(C(=O)N[C@H]2Cc3cccc(C(=O)O)c3OB2O)c2cc(NS(N)(=O)=O)ccc2F)C(=O)C1=O (stereo partly drawn) [Example 197, (3R)-3-(2-(4-ethyl-2,3-dioxopiperazine-1-carboxamido)-2-(2-fluoro-5-(sulfamoylamino)phenyl)acetamido)-2-hydroxy-3,4-dihydro-2H-benzo[e][1,2]oxaborinine-8-carboxylic acid]",> 128 µg/mL,8 to 16 µg/mL,8 to 16 µg/mL,8 to 16 µg/mL,> 128 µg/mL,0.5 to 1 µg/mL,2 to 4 µg/mL,0.5 to 1 µg/mL,D (D represents a potency <10 μM)
"NS(=O)(=O)Nc1ccc(F)c(C(NC(=O)N2CCN(CCF)C(=O)C2=O)C(=O)N[C@H]2Cc3cccc(C(=O)O)c3OB2O)c1 (stereo partly drawn) [Example 198, (3R)-3-(2-(2-fluoro-5-(sulfamoylamino)phenyl)-2-(4-(2-fluoroethyl)-2,3-dioxopiperazine-1-carboxamido)acetamido)-2-hydroxy-3,4-dihydro-2H-benzo[e][1,2]oxaborinine-8-carboxylic acid]",> 128 µg/mL,8 to 16 µg/mL,32 to 64 µg/mL,8 to 16 µg/mL,> 128 µg/mL,0.5 to 1 µg/mL,2 to 4 µg/mL,0.5 to 1 µg/mL,D (D represents a potency <10 μM)
"CCN1CCN(C(=O)NC(C(=O)N[C@H]2Cc3cccc(C(=O)O)c3OB2O)c2ccc(C(=O)O)c(Cl)c2Cl)C(=O)C1=O (stereo partly drawn) [Example 201, (3R)-3-(2-(4-carboxy-2,3-dichlorophenyl)-2-(4-ethyl-2,3-dioxopiperazine-1-carboxamido)acetamido)-2-hydroxy-3,4-dihydro-2H-benzo[e][1,2]oxaborinine-8-carboxylic acid]",> 128 µg/mL,> 128 µg/mL,> 128 µg/mL,> 128 µg/mL,> 128 µg/mL,2 to 4 µg/mL,8 to 16 µg/mL,32 to 64 µg/mL,D (D represents a potency <10 μM)
"CCN1CCN(C(=O)NC(C(=O)N[C@H]2Cc3cccc(C(=O)O)c3OB2O)c2cc(C#N)c(O)cc2F)C(=O)C1=O (stereo partly drawn) [Example 209, (3R)-3-(2-(5-cyano-2-fluoro-4-hydroxyphenyl)-2-(4-ethyl-2,3-dioxopiperazine-1-carboxamido)acetamido)-2-hydroxy-3,4-dihydro-2H-benzo[e][1,2]oxaborinine-8-carboxylic acid]",> 128 µg/mL,32 to 64 µg/mL,32 to 64 µg/mL,32 to 64 µg/mL,> 128 µg/mL,2 to 4 µg/mL,8 to 16 µg/mL,2 to 4 µg/mL,D (D represents a potency <10 μM)

# Source: patent US20230114728A1 (Venatorx Pharmaceuticals, Inc., priority 2019, published 2023)
